Measurements taken from PMC2656571 (Journal of medicinal chemistry, 2008).

What was measured:
Type in all cases: cell-based
[1] = test system: HIV-1 IIIB; test: Inhibition of HIV-1 IIIB replication in MT-2 cells; settings: CC50 (MT-2 cells) / EC50 (p24 production)
[2] = test system: MT-2 cells; test: In vitro cytotoxicity on MT-2 cells; settings: human
[3] = test system: HIV-1-mediated cell-cell fusion; test: HIV-1-mediated cell-cell fusion; settings: data not shown
[4] = test system: HIV-1; test: HIV-1-mediated cytopathic effect; settings: data not shown

| Compound | SI (selectivity index, CC50/EC50) [1] | CC50 at 4 days [2] | Inhibition of HIV-1-mediated cell-cell fusion [3] | Inhibition of HIV-1-mediated cytopathic effect (CPE) [4] |
| --- | --- | --- | --- | --- |
| Cc1ccc(C)n1Cc1ccc(C(=O)O)cc1 [Compound A19, N-(4-Carboxy)benzyl-2,5-dimethylpyrrole] | 19.20 | 299 µM |  |  |
| O=C(O)c1ccc(-n2cccc2)cc1 [Compound A6, N-(4-Carboxy)phenylpyrrole] | >7.72 | > 535 µM |  |  |
| O=C(O)c1ccc(-c2noc(C(F)(F)F)n2)cc1 [Compound B10, 3-(4-Carboxyphenyl)-5-(trifluoromethyl)-1,2,4-oxadiazole] | > 16 |  |  |  |
| Cc1ccc(C)n1-c1ccc(O)c(C(=O)O)c1 [Compound A12, N-(3-Carboxy-4-hydroxy)phenyl-2,5-dimethylpyrrole] |  |  | effectively inhibited | effectively inhibited |
| O=C(O)c1ccc(-c2noc(CCl)n2)cc1 [Compound B6, 3-(4-Carboxy)phenyl-5-chloromethyl-1,2,4-oxadiazole] | > 16 |  |  |  |
| Cc1ccc(C)n1-c1ccc(Cl)cc1C(=O)O [Compound A18, N-(4-Chloro-2-carboxy)phenyl-2,5-dimethylpyrrole] | >46.73 | > 400 µM |  |  |
| O=C(O)c1cc(-n2cccc2)ccc1O [Compound A2, N-(3-Carboxy-4-hydroxy)phenylpyrrole] | >50.99 | > 493 µM |  |  |
| O=C(O)c1ccc(Cn2cccc2)cc1 [Compound A9, N-(4-Carboxy)benzylpyrrole] | >7.78 | > 498 µM |  |  |
| O=C(O)Cc1ccc(-n2cccc2)cc1 [Compound A7, N-(4-Carboxymethene)phenylpyrrole] | >1.34 | > 498 µM |  |  |
| O=C(O)Cc1ccc(Cn2cccc2)cc1 [Compound A10, N-(4-Carboxymethene)benzylpyrrole] |  | > 465 µM |  |  |
